Laboratory results: PMC8591608, “DNDI-6148: A Novel Benzoxaborole Preclinical Candidate for the Treatment of Visceral Leishmaniasis” (Journal of Medicinal Chemistry, 2021)
Where two headings read alike, the source gives them in different places.

What was measured:
MRC5 cytotoxicity assay = type: cell-based; settings: human, MRC5SV2 cells (human embryonic lung fibroblasts), geometric mean of at least two independent tests
Description: (§1) Primary peritoneal mouse macrophages (PMM) were collected two days after peritoneal stimulation with a 2% potato starch suspension. MRC5SV2 cells (diploid human embryonic lung fibroblasts) were cultured in minimal essential medium (MEM) containing Earle’s salts, supplemented with L-glutamine, NaHCO3, and 5% inactivated fetal calf serum. All cultures and assays were conducted at 37 °C under an atmosphere of 5% CO2.
(§2) Assays were performed in sterile 96-well microtiter plates, each well containing 10 μL of the compound dilution and 190 μL of MRC5SV2 or PMM inoculum (3 × 10^4 cells/mL). Cell growth was compared to untreated controls (100% growth) and assay-media controls (0% growth). After three-day incubation, cell viability was assessed fluorometrically by adding resazurin (50 μL/well of a stock solution in phosphate buffer (50 μg/mL)), incubating for 4 h and measuring fluorescence (λex 550 nm, λem 590 nm). The results were expressed as a percentage reduction in cell growth compared to untreated control wells. […] Tamoxifen was included as the reference drug.

[1] = Liver microsome stability, human; type: in vitro ADME; settings: human liver microsomes
Description: (§3) Tests were performed by WuXi AppTec, China. Test compounds (at 1 μM) or positive controls (testosterone, propafenone, and diclofenac) were incubated at 37 °C with liver microsomes from Balb/c mouse, golden (Syrian) hamster, Sprague-Dawley rat, Beagle dog, or human in the presence of a NADPH regenerating system and phosphate buffer (100 mM, pH 7.4) at 0.4 or 0.8 mg/mL microsomal protein. The samples were removed at time intervals from 0 to 60, 90, or 120 min and immediately mixed with cold methanol supplemented or not with acid (3% formic acid) and centrifuged prior to analysis by LC-MS/MS using tolbutamide or propranolol as internal standards.

[2] = Liver microsome stability, hamster; type: in vitro ADME; settings: golden (Syrian), hamster liver microsomes
Description: as §3

L. infantum [3] = assay: Intramacrophage L. infantum assay; type: cell-based; settings: Leishmania infantum
Description: (§4) L. infantum (MHOM/MA/67/ITMAP263) and L. donovani (MHOM/ET/67/L82) were maintained in the golden (Syrian) hamster (Mesocricetus auratus). Ex vivo amastigotes were collected from the spleen of an infected donor hamster using two centrifugation purification steps: 230g for 10 min, keeping the supernatant layer, and 4100g for 30 min, keeping the pellet. The spleen parasite burden was assessed using the Stauber technique.[25] For in vitro assays, the inoculum was prepared in RPMI-1640 medium, supplemented with 200 mM L-glutamine, 16.5 mM NaHCO3, and 5% inactivated fetal calf serum. For the in vivo model, an infection inoculum containing 2 × 10^7 amastigotes/100 μL was prepared in phosphate-buffered saline (PBS).
(§5) The assay was performed in sterile 96-well microtiter plates, each well containing 10 μL of the compound dilution and 190 μL of the PMM/amastigote inoculum (3 × 10^4 cells/4.5 × 10^5 parasites per well). Parasite multiplication was compared to untreated infected controls (100% growth) and uninfected controls (0% growth). After five-day incubation, total parasite burdens were microscopically assessed after staining the cells with a 10% Giemsa solution. The results were expressed as a percentage reduction in parasite burden compared to untreated control wells. EC50 values were determined using an extended dose range (2-fold compound dilutions, 8-point concentration curve). Miltefosine was used as the reference drug.[26] For selected compounds, this assay format was also run using the L. donovani inoculum.

PMM cytotoxicity assay = type: cell-based; settings: mouse, primary peritoneal mouse macrophages (PMM); for CC50 at 72 h / CC50 at 3 days: geometric mean of at least two independent tests
Description: as §1, §2

[4] = Hamster oral pharmacokinetic study; type: in vivo, golden Syrian hamsters; settings: female, golden Syrian, plasma, single p.o. dose 50 mg/kg, read-out: AUC0–24 after single p.o. dose of 50 mg/kg
Description: […] The K2-EDTA anticoagulant was added to blood samples collected from 0.25 to 36 h, which were processed to plasma and stabilized with phosphoric acid (1% final) before analysis by LC-MS/MS. PK parameters were calculated using WinNonlin software (version 6.3).

L. donovani = assay: Intramacrophage L. donovani assay; type: cell-based; settings: Leishmania donovani
Description: as §4, §5

L. infantum [5] = assay: L. infantum hamster model of VL; type: in vivo
Description: as §4
Female golden hamsters for the in vivo model of visceral leishmaniasis were purchased from Janvier, France (body weight 80–100 g). This study using laboratory rodents was carried out in strict accordance with all mandatory guidelines (EU directives, including the Revised Directive 2010/63/EU on the protection of Animals used for Scientific Purposes that came into force on 01/01/2013, and the declaration of Helsinki in its latest version) and was approved by the ethical committee of the University of Antwerp, Belgium (UA-ECD 2011-74). Female golden hamsters for the pharmacokinetic study were purchased from Vital River, Beijing, China. This study was conducted following institutional review and in accordance with institutional and national guidelines at WuXi AppTec (the Institutional Animal Care and Use Committee (IACUC)). Balb/c mice for the in vivo model of visceral leishmaniasis (LSHTM) were purchased from Charles River, U.K., and related studies were conducted under license PPL 70/8427 from the U.K. Home Office.
Female golden hamsters were randomly allocated to experimental groups of six animals each, based on body weight. At the start of the experiment (Day 0), each animal was infected with L. infantum or L. donovani inoculum, delivered by intracardial injection. Six hamsters were assigned to the vehicle-treated, infected control group. Six hamsters were assigned per group (1 group/compound) for the evaluation of compound and miltefosine. […] At Day 35 (10 days after the final oral dose), all animals were euthanized and autopsies were conducted. The study evaluated the following parameters. • 1. Adverse effects: all animals were observed daily for the occurrence/presence of adverse effects. • 2. Body weight: all animals were weighed twice per week to monitor general health. • 3. Parasite burden: amastigote burdens in each target organ (liver, spleen, and bone marrow) were determined at Day 35. The organs of individual animals were weighed (except for bone marrow). Impression smears were stained with Giemsa for microscopic examination of the total amastigote burden, defined as the mean number of amastigotes per cell multiplied by the number of cells counted (minimum 500 nuclei); the results were expressed as a percentage reduction in amastigote burden compared to vehicle-treated, infected control animals.

[6] = pH 7.4, Table 4, read-out: HLM Clint
[7] = pH 7.4, Table 4, read-out: HamLM Clint
[8] = Table 4, geometric mean of at least two independent tests, read-out: intramacrophage L. infantum EC50
[9] = pH 7.4, Table 5, read-out: HLM Clint
[10] = pH 7.4, Table 5, read-out: HamLM Clint
[11] = Table 5, geometric mean of at least two independent tests, read-out: intramacrophage L. infantum amastigote EC50
[12] = Table 2, geometric mean of at least three independent assays

microsomal CLint at 1 μM [1, 6] [µL/min/mg] | microsomal CLint at 2 h, 1 µM [2, 7] [µL/min/mg] | EC50 (L. infantum [3]; [8]) [µM] | microsomal CLint at 2 h, 1 µM [2, 10] [µL/min/mg] | EC50 (L. infantum [3]; [11]) [µM] | SMILES | CC50 at 3 days (MRC5 cytotoxicity assay; Table 4) [µM] | CC50 at 3 days (PMM cytotoxicity assay; Table 4) [µM] | CC50 at 72 h (MRC5 cytotoxicity assay; Table 4) [µM] | other results
< 11.9 | 41 | 1.6 | – | – | O=C(Nc1ccc2c(c1)B(O)OC2)c1cn(CC(F)(F)F)nc1C(F)(F)F [Compound 5, N-(1-Hydroxy-1,3-dihydrobenzo[c][1,2]oxaborol-6-yl)-1-(2,2,2-trifluoroethyl)-3-(trifluoromethyl)-1H-pyrazole-4-carboxamide] | > 64 | – | – | CC50 at 72 h (PMM cytotoxicity assay; Table 4): 50 µM; CC50 at 3 days (PMM cytotoxicity assay; Table 6): 53.8 µM; AUC(0-t) [4]: 21000 ng·h/mL; EC50 (L. donovani; Table 6, geometric mean of at least two independent tests): 1 µM; reduction in parasite burden, bone marrow, 5 days (L. infantum [5]; 25 mg/kg BID p.o. for 5 days): 77.0%; reduction in parasite burden, liver, 5 days (L. infantum [5]; 25 mg/kg BID p.o. for 5 days): 89.7%; reduction in parasite burden, spleen, 5 days (L. infantum [5]; 25 mg/kg BID p.o. for 5 days): 90.0%; reduction in parasite burden, bone marrow, 5 days (L. infantum [5]; 50 mg/kg BID p.o. for 5 days): 98.0%; reduction in parasite burden, liver, 5 days (L. infantum [5]; 50 mg/kg BID p.o. for 5 days): 99.7%; reduction in parasite burden, spleen, 5 days (L. infantum [5]; 50 mg/kg BID p.o. for 5 days): 99.2%
< 11.9 | 44 | 1.6 | – | – | Cc1cccc(-n2ncc(C(=O)Nc3ccc4c(c3)B(O)OC4)c2C)n1 [Compound 18, N-(1-Hydroxy-1,3-dihydrobenzo[c][1,2]oxaborol-6-yl)-5-methyl-1-(6-methylpyridin-2-yl)-1H-pyrazole-4-carboxamide] | – | > 64 | 41 | –
< 11.9 | 253 | 0.5 | – | – | O=C(Nc1ccc2c(c1)B(O)OC2)c1cc(-c2ccccn2)n[nH]1 [Compound 19, N-(1-Hydroxy-1,3-dihydrobenzo[c][1,2]oxaborol-6-yl)-3-(pyridin-2-yl)-1H-pyrazole-5-carboxamide] | – | – | 4 | CC50 at 72 h (PMM cytotoxicity assay; Table 4): 32 µM
– | 121 | 34 | – | – | Cn1nc(-c2ccccn2)cc1C(=O)Nc1ccc2c(c1)B(O)OC2 [Compound 20, N-(1-Hydroxy-1,3-dihydrobenzo[c][1,2]oxaborol-6-yl)-1-methyl-3-(pyridin-2-yl)-1H-pyrazole-5-carboxamide] | > 64 | > 64 | – | microsomal CLint at 2 h, 1 µM [1, 6]: 18 µL/min/mg
– | 106 | 1.8 | – | – | Cn1nc(C(=O)Nc2ccc3c(c2)B(O)OC3)cc1-c1ccccn1 [Compound 21, N-(1-Hydroxy-1,3-dihydrobenzo[c][1,2]oxaborol-6-yl)-1-methyl-5-(pyridin-2-yl)-1H-pyrazole-3-carboxamide] | – | > 64 | 54 | microsomal CLint at 2 h, 1 µM [1, 6]: 14 µL/min/mg
– | – | – | 40 | 0.8 | COc1cccc(-n2nnc(C(=O)Nc3ccc4c(c3)B(O)OC4)c2C)n1 [Compound 25, N-(1-Hydroxy-1,3-dihydrobenzo[c][1,2]oxaborol-6-yl)-1-(6-methoxypyridin-2-yl)-5-methyl-1H-1,2,3-triazole-4-carboxamide] | – | – | – | CC50 at 3 days (MRC5 cytotoxicity assay; Table 5): > 64 µM; microsomal CLint at 2 h, 1 µM [1, 9]: 23 µL/min/mg; CC50 at 72 h (PMM cytotoxicity assay; Table 5): 32 µM
– | – | – | 88 | 0.6 | Cc1c(-c2ccccn2)csc1C(=O)Nc1ccc2c(c1)B(O)OC2 [Compound 30, N-(1-Hydroxy-1,3-dihydrobenzo[c][1,2]oxaborol-6-yl)-3-methyl-4-(pyridin-2-yl)thiophene-2-carboxamide] | – | – | – | CC50 at 72 h (MRC5 cytotoxicity assay; Table 5): 2.3 µM; microsomal CLint at 1 μM [1, 9]: < 11.9 µL/min/mg; CC50 at 72 h (PMM cytotoxicity assay; Table 5): 32 µM

Further lines, the molecule ahead of its results:

SMILES | microsomal CLint at 1 μM [1, 6] [µL/min/mg] | microsomal CLint at 2 h, 1 µM [2, 7] [µL/min/mg] | EC50 (L. infantum [3]; [8]) [µM] | microsomal CLint at 2 h, 1 µM [2, 10] [µL/min/mg] | EC50 (L. infantum [3]; [11]) [µM] | CC50 at 3 days (MRC5 cytotoxicity assay; Table 4) [µM] | CC50 at 3 days (PMM cytotoxicity assay; Table 4) [µM] | CC50 at 72 h (MRC5 cytotoxicity assay; Table 4) [µM] | other results
Cc1c(C(=O)Nc2ccc3c(c2)B(O)OC3)cnn1CCC(F)(F)F [Compound 15, N-(1-Hydroxy-1,3-dihydrobenzo[c][1,2]oxaborol-6-yl)-5-methyl-1-(3,3,3-trifluoropropyl)-1H-pyrazole-4-carboxamide] | < 11.9 | 48 | 14 | – | – | > 64 | > 64 | – | –
COc1cccc(-n2ncc(C(=O)Nc3ccc4c(c3)B(O)OC4)c2C)n1 [Compound 17, N-(1-Hydroxy-1,3-dihydrobenzo[c][1,2]oxaborol-6-yl)-1-(6-methoxypyridin-2-yl)-5-methyl-1H-pyrazole-4-carboxamide] | < 11.9 | 40 | 1.4 | – | – | – | > 64 | 40 | –
O=C(Nc1ccc2c(c1)B(O)OC2)c1cn(-c2ccccn2)nn1 [Compound 22, N-(1-Hydroxy-1,3-dihydrobenzo[c][1,2]oxaborol-6-yl)-1-(pyridin-2-yl)-1H-1,2,3-triazole-4-carboxamide] | – | – | – | 18 | 1.7 | – | – | – | CC50 at 72 h (MRC5 cytotoxicity assay; Table 5): 44.8 µM; microsomal CLint at 1 μM [1, 9]: < 11.9 µL/min/mg; CC50 at 3 days (PMM cytotoxicity assay; Table 5): > 64 µM
Cc1oc(C(=O)Nc2ccc3c(c2)B(O)OC3)cc1-c1ccccn1 [Compound 29, N-(1-Hydroxy-1,3-dihydrobenzo[c][1,2]oxaborol-6-yl)-5-methyl-4-(pyridin-2-yl)furan-2-carboxamide] | – | – | – | 82 | 1.7 | – | – | – | CC50 at 72 h (MRC5 cytotoxicity assay; Table 5): 45 µM; microsomal CLint at 1 μM [1, 9]: < 11.9 µL/min/mg; CC50 at 72 h (PMM cytotoxicity assay; Table 5): 29 µM
CCCCCCCCCCCCCCCCOP(=O)([O-])OCC[N+](C)(C)C [miltefosine, reference compound] | – | – | – | – | – | > 64 | – | – | EC50 (L. infantum [3]; Table 2, geometric mean of at least three independent assays, read-out: intramacrophage L. infantum EC50): 10 µM; EC50 at 3 days (PMM cytotoxicity assay; [12]): 33 µM; CC50 at 72 h (PMM cytotoxicity assay; Table 4): 33 µM; EC50 (L. donovani; [12]): 10 µM
